Results on 1 compound are retold here after patent US8628961B2, “Small molecule antagonists of phosphatidylinositol-3,4,5-triphosphate (PIP3) and uses thereof” (Tufts University, priority 2010, dated 2014).

In one assay the test system is HUVEC cells. Nature of the assay: HUVEC migration, wound healing and transwell assays. Type of assay: cell-based, human. As to the method:
Two models of cell migration were used, a transwell migration model and a wound closure model. Migration of cancer and endothelial cells was evaluated using 24-transwell Boyden chamber (Costar, Bedford, Mass.) with a polystyrene membrane (6.5 mm diameter, 10 μm thickness, and 8 μm pore size). Cells were suspended in serum-free media and seeded in the upper compartment of each well (2×10^4 cells/well) in the presence or absence of different compounds at the indicated concentrations. The lower compartment contained 600 μl of serum-free culture media supplemented with growth factors. After an 8-hr incubation at 37° C., cells were fixed and stained with 0.1% crystal violet. Non-migrating cells on the upper surface of the filter were removed, and the stained cells that migrated to the lower side were photographed using a phase-contrast microscope (Nikon, Japan) in five random fields. The cells were lysed with 10% acetic acid, and colorimetric determination was made at 595 nm using Wallac Victor 3 plate reader.
Cancer or endothelial cells were seeded into fibronectin-coated 96-well plates (2×10^4 cells/well). […]
Second, HUVEC were serum starved and treated with PITs (25, 50 100 μM) or PIT-1 is (100 μM) for 8 hr, followed by bFGF (10 ng/ml) stimulation for 15 min. […] The number of cell ruffles/lamellipodia was counted in five random fields.

A further assay concerns U87MG cells. Nature of the assay: Combination with Akt kinase inhibitors in U87MG cells (western blot, ATP assay). The assay is classed as cell-based, human. Conditions: 100 μM PIT-1 with 10 μM Akt inhibitor. As to the method: U87MG cells were treated with 100 μM PIT-1, or 10 μM Akt inhibitor VIII (Calbiochem) or Akt inhibitor (Calbiochem), or 100 μM PIT-1 together with 10 μM Akt inhibitor VIII or Akt inhibitor, for 12 hr and then phosphorylation events were evaluated by western blot.
For orientation: In western blotting, separated proteins are transferred to a membrane and probed.

Assay [1] deals with AMPK and ACC phosphorylation, LC3-II. Nature of the assay: Metabolic stress and autophagy markers. The assay is classed as cell-based, human. An excerpt: Changes in cell metabolism have emerged in recent years as an important component of PI3K/PIP3/Akt signaling, contributing to the regulation of cell viability and transformation by the PI3K/Akt pathway. Datta S R et al. (1999) Genes Dev 13:2905-27; Elstrom R L et al. (2004) Cancer Res 64:3892-9. Therefore, the possibility that PIT-1 may cause dysregulation of energy homeostasis and induction of the metabolic stress in cancer cells, which may contribute to the PIT-induced cell death, was investigated. […] Hardie D G (2007) Nat Rev Mol Cell Biol 8:774-85. […] Mathew R et al. (2007) Nat Rev Cancer 7:961-7. […] It is also consistent with the established role of Akt as an inhibitor of autophagy. […] Takeuchi H et al. (2005) Cancer Res 65:3336-46.

A further assay concerns Rac1. Nature of the assay: Rac1 activation pull-down (GST-Pak1-PBD), western blot. Type of assay: cell-based, human. Conditions: SUM159, PDGF. As to the method: Rho/Rac family, especially Rac1, plays a critical role in actin polymerization, membrane ruffling/lamellipodia formation, and cell motility (Ridley A J et al. (1992) Cell 70:401-410) downstream of the GEFs, e.g., VAV family, and upstream of the WAVE family. The effect of PITs on Rac1 activation was therefore analyzed. SUM159 cells were seeded on 10 cm^2 plates and serum starved overnight, treated with different PIT compounds at a variety of concentrations for 2 hr, and then stimulated with 100 ng/ml PDGF for 15 min. Next, cells were rinsed once with PBS, and 1 ml lysis buffer (25 mM Tris-HCl, pH 7.5, 150 mM NaCl, 5 mM MgCl2, 1% NP-40, 1 mM DTT, 5% glycerol, 1 μg/ml aprotinin, 1 μg/ml leupeptin and 1 mM PMSF) was added per plate. The cells were scraped and transferred to a microcentrifuge tube, vortexed briefly, and incubated on ice for 5 min, followed by a centrifugation at 16,000×g at 4° C. for 15 min. The supernatant was collected. A sample of the lysate was used to ensure equal protein concentration in the samples. Next, 700 μl lysate, 20 μl glutathione-sepharose beads, and 20 μg GST-human Pak1-PBD were mixed together, and the reaction mixture was incubated at 4° C. for 1 hr with gentle rocking. The beads were then washed three times with lysis buffer, and proteins were eluted by boiling beads in 50 μl of the 2×SDS sample buffer at 95-100° C. for 5 min. […]

Assay [2] has as its target PH domain of Akt (His6-Akt123) (Homo sapiens (Human), UniProt P31749). Nature of the assay: NMR 2D HSQC binding analysis. On the procedure:
To further characterize the mode of action of PIT-1, NMR-based analyses of PIT-1 binding to the PH domain of Akt were performed. […] PIT-1 was further titrated to identify residues primarily affected by the small molecule binding. Using published Akt2 HSQC peak assignments (Auguin D et al. (2004) J Biomol NMR 28:137-55), it was observed that the residues Trp22 (W22), Tyr26 (Y26), and Asn54 (N54), located in the PIP3 binding pocket of the Akt PH domain, are primarily affected by PIT-1. Changes in other crosspeak signals were observed only at the 2× access of PIT-1.

A further assay concerns apoptosis. Nature of the assay: Apoptosis features: subG1 DNA content, Western blot of caspase-3 and PARP. Type of assay: cell-based. An excerpt:
Since PI3K/PIP3/Akt signaling plays a critical role in the inhibition of apoptosis (Datta S R et al. (1999) Genes Dev 13:2905-27), the possibility that PITs induce apoptosis was examined. […] Proapoptotic Bcl-2 family members Bax and Bak are important mediators of apoptosis. Wei M C et al. (2001) Science 292:727-30. […] Non-apoptotic mechanisms of cell death may also play some additional, albeit less important, role in PIT-induced killing, as some cell death was still observed in Bax/Bak-deficient cells and in the presence of zVAD.fmk.

Sequence of PH domain of Akt (His6-Akt123) (P31749 1-123): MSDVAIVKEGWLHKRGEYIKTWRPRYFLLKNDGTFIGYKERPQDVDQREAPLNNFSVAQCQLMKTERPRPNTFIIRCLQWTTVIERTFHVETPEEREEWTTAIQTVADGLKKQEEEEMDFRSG

Consider `O=C(NC(=S)Nc1cc([N+](=O)[O-])cc(Cl)c1O)c1ccccc1` [PIT-1], for which the “migration of HUVEC cells” value in the assay with HUVEC cells is listed as “efficiently blocked migration of HUVEC cells”. For the same compound, the “combination with Akt kinase inhibitors: Akt activation, downstream phosphorylation, cell survival” value in the assay on U87MG cells is “acted synergistically”. In assay [1], the “phosphorylation of ACC” value is reported as “Increased phosphorylation” and the “phosphorylation of AMPK” value was “significant increase in the phosphorylation”. The “expression of autophagic marker LC3-II” value in assay [1] (U87MG cells) is reported as “prominently increased the expression”. For the same compound, in the assay on Rac1, the “activation of Rac1 caused by growth factor stimulation” value is “efficiently suppressed the activation of Rac1”. The “changes in 2D HSQC 1H-15N correlation spectrum of His6-Akt123” value in assay [2] was “induces significant changes”. In addition, the “subG1 DNA content in cells” value in the assay on apoptosis (P<0.01) was “significant increase in subG1 DNA content”. The “cleavage/activation of caspase-3 and processing of PARP” value in the assay on apoptosis (Western blot) was “induced the cleavage/activation”.
